Results published in US20250064799A1, “ORAL FORMULATIONS OF LEVOSIMENDAN FOR TREATING PULMONARY HYPERTENSION WITH HEART FAILURE WITH PRESERVED EJECTION FRACTION” (Tenax Therapeutics, Inc., priority 2021, published 2025).

Columns and labels:
[1] = tested on: Patient 019-002 with PH-HFpEF; assay: HELP Study 24-hour open label lead-in infusion, rest and exercise right heart catheterization, Patient 019-002; assay type: in vivo, human
Experimental: FIG. 3: Pulmonary Capillary Wedge Pressure (PCWP) of Patient […] of HELP Study.
During the HELP Study, as described in PCT International Application Publication No. WO 2021/126884, the entire contents of which are incorporated by reference, Patient 019-002 was administered empagliflozin shortly after beginning levosimendan therapy.
Specifically, Patient 019-002 had established PH-HFpEF and was initially enrolled into the HELP Trial. The diagnosis of PH-HFpEF was confirmed by rest and exercise right heart catheterization. […] The PCWP of 35 mmHg at rest increased with exercise to 55 mmHg at baseline. […] Thus, levosimendan produced a 40% fall in resting PCWP and a 33% fall in exercise PCWP. In addition, at baseline the CVP was 18 mmHg and increased to 30 mmHg with exercise. Following the 24 hours of i.v. levosimendan the CVP fell to 12 mmHg at rest and to 21 mmHg with exercise. Thus, levosimendan produced a 33% fall in resting CVP, and a 30% fall in CVP with exercise. Accordingly, the response of Patient 019-002 to levosimendan treatment was typical of other patients in the study in terms of improvements to their hemodynamic profile (FIG. 3).

[2] = tested on: patients with PH-HFpEF; assay: Kansas City Cardiomyopathy Questionnaire (KCCQ), I.V. to oral levosimendan transition study; assay type: in vivo, human
Experimental: Methods: Patients with PH-HFpEF who were in the open label extension study of the HELP Trial for more than 18 months volunteered to enroll in this transition protocol. Patients were initiated with 1 mg/day of oral levosimendan 5-7 days after the last IV levosimendan infusion. The oral dose was increased every 2 weeks by 1 mg/day to a maximum of 4 mg/day over an 8 week period. The highest daily dose was determined by the investigator based on clinical assessments of symptoms and side effects. The primary safety endpoints were change in resting heart rate and blood pressure from baseline to final study visit and all other adverse events. Secondary efficacy endpoints included change in six-minute walk distance (6MWD), serum brain natriuretic peptide (BNP) or NT-proBNP levels, and quality of life as assessed by Kansas City Cardiomyopathy Questionnaire clinical summary score (KCCQ-CS) and overall summary score (KCCQ-OS) from baseline to final study visit. All comparisons were the baseline and at week 6-8 measurements at the highest daily dose of levosimendan.
• Change in six-minute walk distance (6MWD) from baseline to final study visit • Change in serum brain natriuretic peptide (BNP) or NT-proBNP levels from baseline to final study visit • Change in quality of life as assessed by Kansas City Cardiomyopathy Questionnaire clinical summary score (KCCQ-CS) and overall summary score (KCCQ-OS) from baseline to final study visit
All comparisons were the baseline and at week 6-8 measurements at the highest daily dose of levosimendan.

[3] = 24 hours of i.v. levosimendan vs baseline
[4] = baseline to final visit, oral levosimendan

C[C@@H]1CC(=O)NN=C1c1ccc(NN=C(C#N)C#N)cc1 [levosimendan]
fall in CVP with exercise [1, 3]: 30%
fall in exercise PCWP [1, 3]: 33%
fall in resting CVP [1, 3]: 33%
fall in resting PCWP [1, 3]: 40%
CVP at rest ([1]; following 24 hours of i.v. levosimendan (baseline 18 mmHg)): 12 mmHg
CVP with exercise ([1]; following 24 hours of i.v. levosimendan (baseline 30 mmHg)): 21 mmHg
PCWP at rest ([1]; following 24 hours of i.v. levosimendan (baseline 35 mmHg)): 21 mmHg
PCWP with exercise ([1]; following 24 hours of i.v. levosimendan (baseline 55 mmHg)): 37 mmHg
pulmonary capillary wedge pressure (PCWP) after levosimendan administration (FIG. 3) ([1]; single 24-hour open label lead-in infusion): decrease
KCCQ OVERALL SUMMARY, mean Δ [2, 4]: +3.7
KCCQ PHYSICAL LIMITATION, mean Δ [2, 4]: +0.3
KCCQ QUALITY OF LIFE, mean Δ [2, 4]: +4.2
KCCQ SELF EFFICACY, mean Δ [2, 4]: −2.3
KCCQ SOCIAL LIMITATION, mean Δ [2, 4]: +5.5
KCCQ Symptom Burden, mean Δ [2, 4]: +6.3
KCCQ Symptom Frequency, mean Δ [2, 4]: +3.1
KCCQ Symptom Stability, mean Δ [2, 4]: +9.4
KCCQ TOTAL SYMPTOM, mean Δ [2, 4]: +4.7
mean KCCQ-CS score improvement ([2]; n=16, oral levosimendan): 2.5 points
mean KCCQ-OS score improvement ([2]; n=16, oral levosimendan): 3.7 points
mean KCCQ-TS score improvement ([2]; n=16, oral levosimendan): 4.7 points
